Measured values as given in ChEMBL document CHEMBL1201862, “PubChem BioAssay data set” (2004).
One block for each compound: values may come before it. Active and inactive are the calls of the source.

Columns and labels:
[1] = target: T1, 1-phosphatidylinositol 4,5-bisphosphate phosphodiesterase gamma-1 (Homo sapiens, UniProt P19174); assay: Counterscreen for inhibitors of phospholipase C isozymes (PLC-B3): Fluorescence-based biochemical high throughput dose response assay to identify inhibitors of phospholipase C isozymes (PLC-gamma1).
T1 sequence (P19174 whole entry): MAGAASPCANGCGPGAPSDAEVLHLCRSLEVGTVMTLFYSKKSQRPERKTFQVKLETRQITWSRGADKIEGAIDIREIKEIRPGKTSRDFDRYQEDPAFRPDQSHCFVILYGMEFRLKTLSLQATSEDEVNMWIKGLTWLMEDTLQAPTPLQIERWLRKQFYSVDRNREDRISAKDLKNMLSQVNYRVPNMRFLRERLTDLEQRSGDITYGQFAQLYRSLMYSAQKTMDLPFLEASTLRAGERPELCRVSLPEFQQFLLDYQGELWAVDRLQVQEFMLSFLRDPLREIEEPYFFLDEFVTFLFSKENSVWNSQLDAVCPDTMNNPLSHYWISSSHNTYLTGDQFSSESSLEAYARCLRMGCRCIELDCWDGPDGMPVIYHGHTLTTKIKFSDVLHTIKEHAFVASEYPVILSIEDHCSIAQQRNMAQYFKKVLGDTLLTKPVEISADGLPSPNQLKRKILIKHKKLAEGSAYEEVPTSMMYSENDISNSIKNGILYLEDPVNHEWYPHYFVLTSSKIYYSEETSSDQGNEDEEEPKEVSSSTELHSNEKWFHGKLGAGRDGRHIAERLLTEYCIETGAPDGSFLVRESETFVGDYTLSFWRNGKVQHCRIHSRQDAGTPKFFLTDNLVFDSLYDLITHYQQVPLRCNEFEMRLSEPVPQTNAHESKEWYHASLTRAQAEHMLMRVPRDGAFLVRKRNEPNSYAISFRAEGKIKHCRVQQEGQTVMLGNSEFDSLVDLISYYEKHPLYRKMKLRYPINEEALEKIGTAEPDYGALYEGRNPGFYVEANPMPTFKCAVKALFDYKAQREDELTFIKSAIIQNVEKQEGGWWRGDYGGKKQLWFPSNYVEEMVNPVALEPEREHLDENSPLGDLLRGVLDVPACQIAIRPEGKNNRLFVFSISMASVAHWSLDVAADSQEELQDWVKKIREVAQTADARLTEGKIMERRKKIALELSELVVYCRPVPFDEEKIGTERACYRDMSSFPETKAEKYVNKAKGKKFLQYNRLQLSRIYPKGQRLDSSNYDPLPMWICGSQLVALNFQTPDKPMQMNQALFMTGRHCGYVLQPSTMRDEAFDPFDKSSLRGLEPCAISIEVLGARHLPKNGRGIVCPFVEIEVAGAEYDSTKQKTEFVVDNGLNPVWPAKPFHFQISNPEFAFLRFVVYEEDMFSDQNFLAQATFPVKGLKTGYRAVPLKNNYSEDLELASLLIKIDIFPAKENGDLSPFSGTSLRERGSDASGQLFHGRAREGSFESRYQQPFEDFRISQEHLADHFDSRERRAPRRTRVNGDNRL

[2] = target: T2, 1-phosphatidylinositol 4,5-bisphosphate phosphodiesterase beta-3 (Homo sapiens, UniProt Q01970); assay: Fluorescence-based biochemical high throughput dose response assay to identify inhibitors of phospholipase C isozymes (PLC-B3).
T2 sequence (Q01970 whole entry): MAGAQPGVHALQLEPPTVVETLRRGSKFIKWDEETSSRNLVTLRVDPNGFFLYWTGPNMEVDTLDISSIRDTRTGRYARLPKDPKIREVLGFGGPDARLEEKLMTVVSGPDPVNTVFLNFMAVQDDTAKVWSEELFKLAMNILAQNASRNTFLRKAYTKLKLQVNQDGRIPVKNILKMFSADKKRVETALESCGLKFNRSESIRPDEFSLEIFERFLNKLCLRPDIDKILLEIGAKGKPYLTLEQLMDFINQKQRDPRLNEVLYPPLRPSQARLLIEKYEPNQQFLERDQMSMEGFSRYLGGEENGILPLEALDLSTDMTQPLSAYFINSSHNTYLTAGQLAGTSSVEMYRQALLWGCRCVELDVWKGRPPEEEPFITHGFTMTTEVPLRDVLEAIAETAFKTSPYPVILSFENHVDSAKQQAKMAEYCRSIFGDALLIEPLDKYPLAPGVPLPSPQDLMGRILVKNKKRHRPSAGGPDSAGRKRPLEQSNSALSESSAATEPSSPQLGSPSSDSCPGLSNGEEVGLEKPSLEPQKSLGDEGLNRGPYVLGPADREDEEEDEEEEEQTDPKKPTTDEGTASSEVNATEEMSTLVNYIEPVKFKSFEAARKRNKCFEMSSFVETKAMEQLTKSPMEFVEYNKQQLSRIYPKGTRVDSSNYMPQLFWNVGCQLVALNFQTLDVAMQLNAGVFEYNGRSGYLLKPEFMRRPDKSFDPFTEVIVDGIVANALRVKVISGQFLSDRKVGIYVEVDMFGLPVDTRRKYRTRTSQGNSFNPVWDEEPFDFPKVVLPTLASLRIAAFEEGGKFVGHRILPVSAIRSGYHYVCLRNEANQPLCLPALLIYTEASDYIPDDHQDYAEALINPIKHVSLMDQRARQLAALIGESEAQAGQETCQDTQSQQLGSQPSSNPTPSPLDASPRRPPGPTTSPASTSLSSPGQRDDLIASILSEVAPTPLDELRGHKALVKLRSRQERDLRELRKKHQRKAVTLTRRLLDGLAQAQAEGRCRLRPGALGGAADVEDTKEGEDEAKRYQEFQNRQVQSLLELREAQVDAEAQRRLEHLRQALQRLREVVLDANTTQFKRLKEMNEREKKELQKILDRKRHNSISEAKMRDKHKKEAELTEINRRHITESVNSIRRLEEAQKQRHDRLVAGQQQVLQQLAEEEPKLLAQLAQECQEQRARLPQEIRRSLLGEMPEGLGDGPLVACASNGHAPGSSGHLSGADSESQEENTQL

[3] = target: T3, Heat shock factor protein 1 (Mus musculus, UniProt P38532); assay: decrease of HSF1-responsive luciferase luminescence – cell-based, NIH3T3, dose retest, confirmation (AID 2382); format: functional;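 also: NIH3T3 fibroblasts with HSF1-driven luciferase reporter stressed by proteasome inhibitor MG132; luminescence from HSF1-driven luciferase expression after 8 hours of MG132 stress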
T3 sequence (P38532 whole entry): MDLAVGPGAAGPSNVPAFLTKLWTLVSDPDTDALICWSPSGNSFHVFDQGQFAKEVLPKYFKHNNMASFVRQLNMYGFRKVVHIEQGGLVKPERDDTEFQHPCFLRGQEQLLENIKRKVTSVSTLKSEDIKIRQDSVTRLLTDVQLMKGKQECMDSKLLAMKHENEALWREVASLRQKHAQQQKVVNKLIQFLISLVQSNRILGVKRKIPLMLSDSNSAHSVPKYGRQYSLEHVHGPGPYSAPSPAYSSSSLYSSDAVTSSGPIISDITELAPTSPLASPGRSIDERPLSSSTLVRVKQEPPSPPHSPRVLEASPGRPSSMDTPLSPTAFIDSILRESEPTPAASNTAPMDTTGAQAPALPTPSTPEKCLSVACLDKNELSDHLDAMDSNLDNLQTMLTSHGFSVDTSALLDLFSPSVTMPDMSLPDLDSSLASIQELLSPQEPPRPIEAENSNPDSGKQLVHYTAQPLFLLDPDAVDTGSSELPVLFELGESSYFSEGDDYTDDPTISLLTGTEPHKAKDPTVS

[4] = blockers of bursicon-stimulated LGR2 cAMP reporter – cell-based, HEK293, CRE-luciferase reporter, cherry pick, set 2, dose response (AID 743343); format: functional;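 also: transfected cells were stimulated with diluted bursicon conditioned medium after compound addition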
[5] = blockade of melanocortin 4 receptor signaling – cell-based, plate reader, cherry pick, counter-screen for LGR2 antagonist project, dose response (AID 743444); format: functional;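 also: transfected HEK 293 cells stimulated with alpha-MSH peptide; potency of inhibitors of the alpha-MSH evoked signal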
[6] = target: T4, Mannose-6-phosphate isomerase (Homo sapiens, UniProt P34949); assay: MPI inhibition at elevated mannose 6-phosphate – biochemical, fluorescence intensity, high mannose 6-phosphate, primary screen (AID 1220)
T4 sequence (P34949 whole entry): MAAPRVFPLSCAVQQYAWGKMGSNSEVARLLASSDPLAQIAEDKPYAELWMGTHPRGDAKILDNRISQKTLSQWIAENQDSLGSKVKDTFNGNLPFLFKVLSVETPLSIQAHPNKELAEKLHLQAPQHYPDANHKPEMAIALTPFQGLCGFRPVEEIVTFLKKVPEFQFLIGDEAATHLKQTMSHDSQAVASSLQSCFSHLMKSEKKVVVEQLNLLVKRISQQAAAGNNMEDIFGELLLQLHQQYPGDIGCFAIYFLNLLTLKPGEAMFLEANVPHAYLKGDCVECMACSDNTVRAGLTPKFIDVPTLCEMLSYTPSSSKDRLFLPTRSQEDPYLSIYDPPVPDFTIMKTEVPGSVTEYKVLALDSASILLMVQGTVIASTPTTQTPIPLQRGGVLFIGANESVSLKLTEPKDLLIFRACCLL

[7] = target: Eukaryotic translation initiation factor 4E (Mus musculus, UniProt P63073); assay: blockers of eIF4G binding by eIF4E – biochemical, TR-FRET, dose response (AID 855); format: functional;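 also: potency for disrupting eIF4E binding to eIF4GI seen as loss of FRET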
Sequence of Eukaryotic translation initiation factor 4E (P63073 whole entry): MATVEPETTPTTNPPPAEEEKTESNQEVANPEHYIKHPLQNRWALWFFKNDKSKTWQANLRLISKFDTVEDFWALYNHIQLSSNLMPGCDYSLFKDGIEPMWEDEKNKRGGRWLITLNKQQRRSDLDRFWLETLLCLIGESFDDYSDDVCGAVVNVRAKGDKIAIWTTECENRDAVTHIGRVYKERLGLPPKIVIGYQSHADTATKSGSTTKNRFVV

[8] = target: Paired box protein Pax-8 (Homo sapiens, UniProt Q06710); assay: PAX8 transcriptional activity inhibition in RMG-I – RMG-I cells, luciferase, cherry-pick, dose response (AID 687027); format: functional, cell-based;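 also: luciferase reporter driven by Pax8 target thyroperoxidase promoter measured by SteadyGlo luminescence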
Sequence of Paired box protein Pax-8 (Q06710 whole entry): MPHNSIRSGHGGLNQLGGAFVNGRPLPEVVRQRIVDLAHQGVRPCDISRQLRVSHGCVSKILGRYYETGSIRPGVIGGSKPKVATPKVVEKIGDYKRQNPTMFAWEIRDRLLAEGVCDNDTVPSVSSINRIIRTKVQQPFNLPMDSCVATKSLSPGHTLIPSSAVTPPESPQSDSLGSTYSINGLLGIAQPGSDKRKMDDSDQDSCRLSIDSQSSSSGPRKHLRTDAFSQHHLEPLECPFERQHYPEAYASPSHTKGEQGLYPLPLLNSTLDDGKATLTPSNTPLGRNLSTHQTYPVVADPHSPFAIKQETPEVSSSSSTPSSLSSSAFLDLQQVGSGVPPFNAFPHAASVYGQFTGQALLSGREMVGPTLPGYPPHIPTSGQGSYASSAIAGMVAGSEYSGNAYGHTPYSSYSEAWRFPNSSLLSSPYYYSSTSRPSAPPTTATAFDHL

[9] = OVCAR-3 cell viability loss – plate reader, dry powder samples, PAX8 inhibitor project, dose response (AID 743044); format: functional, cell-based
[10] = OVCAR8 cell viability loss – plate reader, dry powder samples, PAX8 project, dose response (AID 743197); format: functional, cell-based; conditions: OVCAR-8
[11] = target: T5, fMet-Leu-Phe receptor (Homo sapiens, UniProt P21462); assay: formyl peptide receptor binders – dose response (AID 519); format: functional
T5 sequence (P21462 whole entry): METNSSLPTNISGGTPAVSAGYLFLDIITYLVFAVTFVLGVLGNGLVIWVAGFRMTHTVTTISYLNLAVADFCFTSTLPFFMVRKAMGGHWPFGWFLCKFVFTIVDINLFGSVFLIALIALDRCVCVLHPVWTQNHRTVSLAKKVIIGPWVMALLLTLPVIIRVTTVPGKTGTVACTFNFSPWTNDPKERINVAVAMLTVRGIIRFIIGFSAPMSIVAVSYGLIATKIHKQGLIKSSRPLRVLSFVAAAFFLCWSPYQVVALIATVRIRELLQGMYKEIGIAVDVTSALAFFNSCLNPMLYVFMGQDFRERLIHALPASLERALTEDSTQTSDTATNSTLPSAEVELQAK

[12] = target: T6, Oxysterols receptor LXR-beta (Homo sapiens, UniProt P55055); format: functional, cell-based;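 also: agonist activity at LXR measured by a cell-based luminescence readout across a dose range, run as a counterscreen for daf-12 agonists; HEK293 cells with Gal4-LXR fusion and GAL4-driven luciferase reporter; potency for activation of Gal4-LXR reporter so compounds are agonists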
T6 sequence (P55055 whole entry): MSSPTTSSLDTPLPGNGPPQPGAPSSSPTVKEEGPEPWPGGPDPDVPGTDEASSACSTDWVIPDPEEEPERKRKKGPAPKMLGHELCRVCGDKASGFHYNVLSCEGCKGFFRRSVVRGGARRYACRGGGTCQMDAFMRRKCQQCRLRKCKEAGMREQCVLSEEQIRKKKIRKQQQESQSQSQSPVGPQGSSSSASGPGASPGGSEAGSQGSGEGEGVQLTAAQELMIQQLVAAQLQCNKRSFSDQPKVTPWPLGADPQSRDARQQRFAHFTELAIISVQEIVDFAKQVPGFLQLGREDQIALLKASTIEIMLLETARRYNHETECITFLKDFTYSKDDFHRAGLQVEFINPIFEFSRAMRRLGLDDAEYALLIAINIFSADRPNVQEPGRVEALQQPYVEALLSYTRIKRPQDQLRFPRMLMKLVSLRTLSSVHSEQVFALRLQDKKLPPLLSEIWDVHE

[13] = target: Genome polyprotein (dengue virus type 2, UniProt P29990); assay: flavivirus cap methylation enzyme inhibition – biochemical, confirmation dose response, primary screen (AID 588689); format: functional
Sequence of Genome polyprotein (P29990 2492-3391 limits assumed): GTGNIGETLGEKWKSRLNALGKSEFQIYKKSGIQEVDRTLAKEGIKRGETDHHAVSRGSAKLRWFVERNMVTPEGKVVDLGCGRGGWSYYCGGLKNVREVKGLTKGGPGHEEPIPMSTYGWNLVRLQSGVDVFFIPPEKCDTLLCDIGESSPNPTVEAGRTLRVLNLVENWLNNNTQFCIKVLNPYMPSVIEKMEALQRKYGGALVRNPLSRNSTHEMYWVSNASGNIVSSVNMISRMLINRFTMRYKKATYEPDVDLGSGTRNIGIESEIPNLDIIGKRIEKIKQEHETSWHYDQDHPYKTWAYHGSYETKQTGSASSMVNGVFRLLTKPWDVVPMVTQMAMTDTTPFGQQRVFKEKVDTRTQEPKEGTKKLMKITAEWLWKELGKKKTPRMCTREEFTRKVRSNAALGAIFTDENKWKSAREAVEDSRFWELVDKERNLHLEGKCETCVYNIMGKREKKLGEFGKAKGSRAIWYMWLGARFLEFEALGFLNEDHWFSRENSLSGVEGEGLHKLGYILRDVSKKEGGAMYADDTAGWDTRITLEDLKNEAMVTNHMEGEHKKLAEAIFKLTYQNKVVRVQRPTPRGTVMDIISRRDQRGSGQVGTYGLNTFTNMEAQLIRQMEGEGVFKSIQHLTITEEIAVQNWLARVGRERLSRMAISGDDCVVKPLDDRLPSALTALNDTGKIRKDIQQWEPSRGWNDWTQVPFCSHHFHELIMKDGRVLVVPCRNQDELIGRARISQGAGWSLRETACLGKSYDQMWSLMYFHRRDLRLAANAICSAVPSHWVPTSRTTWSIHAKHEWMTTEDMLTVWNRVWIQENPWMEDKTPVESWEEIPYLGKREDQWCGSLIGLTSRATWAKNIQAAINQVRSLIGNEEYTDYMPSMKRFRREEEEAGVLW

[14] = IGROV1 cell killing – plate reader, dry powder samples, PAX8 inhibitor project, dose response (AID 743043); format: functional, cell-based; conditions: IGROV-1

- IC50 [1]: > 123 µM (inactive)
- IC50 [2]: > 123 µM (inactive)
SMILES: CCc1cccc(NC(=O)CN(c2ccc(OC)cc2)S(=O)(=O)c2c(C)n[nH]c2C)c1

- IC50 [6]: > 50 µM (not active)
- IC50 [7]: 27.5 µM (active)
SMILES: c1ccc2[nH]c(SN3CCOCC3)nc2c1

- Ki [11]: > 66.7 µM (inactive)
SMILES: CCOC(=O)c1cc(NC(=O)C2C3CCC(O3)C2C(=O)O)cc(C(=O)OCC)c1 (stereo unspecified)

- EC50 [12]: > 67.6 µM (inactive)
SMILES: Fc1ccccc1CSc1ncnc2c1ncn2C1CCCCO1 (stereo unspecified)

- EC50 [12]: > 67.5 µM (inactive)
SMILES: Cc1ccc(C(=N)NOC(=O)c2ccco2)cc1

- Ki [11]: > 66.7 µM (inactive)
SMILES: COc1ccc(-c2cc(C(F)(F)F)nc(N3CCN(Cc4ccccc4)CC3)n2)cc1OC

- IC50 [1]: > 122 µM (inactive)
- IC50 [2]: > 122 µM (inactive)
SMILES: Cc1ccc(C23CC4CC(CC(C(=O)NCC(=O)O)(C4)C2)C3)cc1

The remaining lines, values behind:

SMILES: CC(C)(C)n1ncc2c(=O)n(CC(=O)OCc3ccccc3)cnc21
- EC50 [3]: 23.5 µM (active)
- AC50 [4]: 2.51 µM (active)
- AC50 [5]: 2.3 µM (active)

SMILES: CSc1nc(N)c(C(=O)NC2CCCCC2)s1
- IC50 [1]: > 123 µM (inactive)
- IC50 [2]: > 123 µM (inactive)

SMILES: C[C@@H]1CCCCO[C@@H](CN(C)Cc2ccncc2)[C@H](C)CN([C@@H](C)CO)C(=O)c2cc(NC(=O)Nc3ccc(C(F)(F)F)cc3)ccc2O1
- AC50 [8]: 5.52 µM (active)
- AC50 [9]: 35.8 µM (active)
- AC50 [10]: > 70 µM (inactive)

SMILES: COc1cc(Cl)cc(C(c2c(C(=O)O)[nH]c3ccccc23)c2c(C(=O)O)[nH]c3ccccc23)c1O
- IC50 [13]: 16.9 µM (active)
- IC50 [1]: 54 µM (inactive)
- IC50 [2]: > 122 µM (inactive)

SMILES: CC1=C(C(=O)OC(C)C)[C@]2(C(=O)N(CC(N)=O)c3ccccc32)C(C#N)=C(N)O1
- Ki [11]: > 66.7 µM (inactive)

SMILES: Cc1nn(-c2nnc(NC3CCCCC3)nn2)c(C)c1Br
- EC50 [12]: > 67.6 µM (inactive)

SMILES: C[C@@H]1CCCCO[C@@H](CN(C)Cc2ccc(C(F)(F)F)cc2)[C@H](C)CN([C@@H](C)CO)C(=O)c2cc(NC(=O)Cc3ccccc3)ccc2O1
- AC50 [8]: 7.16 µM (active)
- AC50 [9]: 19.8 µM (active)
- AC50 [14]: 25.7 µM (active)
- AC50 [10]: 33.3 µM (active)

SMILES: C[C@@H]1CN([C@H](C)CO)C(=O)c2cc(NS(=O)(=O)c3ccc(Cl)cc3)ccc2O[C@@H](C)CCCCO[C@H]1CN(C)Cc1ccc2c(c1)OCO2
- AC50 [8]: 10.2 µM (active)
- AC50 [9]: 17.5 µM (active)
- AC50 [14]: 49.9 µM (active)
- AC50 [10]: 51.2 µM (active)
